Where two headings read alike, the source gives them in different places. Marks after values point to notes of the source that are not given here.
Columns and labels:
[1] = target: NaChBac (Halalkalibacterium halodurans (Bacillus halodurans), UniProt Q9KCR8, S273L); test: cell-based; type: cell-based
[2] = system: CHO-K1 cells or COS-7 cells; test: Ca2+/Na+ selectivity of wt and mutant NaChBac, reversal potential under bi-ionic conditions (Example 2); type: cell-based; details: external solution 80 NMDG-Cl, 50 CaCl2, 20 HEPES
Protocol: Unless otherwise stated, the pipette solution contained (in mM); 147 Cs, 120 methanesulfonate, 8 NaCl, 10 EGTA, 2 Mg^2+-adenosine triphosphate, and 20 HEPES (pH 7.4). Bath solution contained (in mM); 140 NaCl, 10 CaCl2, 5 KCl, 10 HEPES (pH 7.4), and 10 glucose. For some experiments, NaCl was isotonically replaced by CaCl2.
For reversal potential measurements to determine the relative permeabilities of Na^+ and Ca^2+, the internal pipette solution contained (in mM): 100 mM Na-Gluconate, 10 NaCl, 10 EGTA, 20 HEPES-Na (pH 7.4 adjusted with NaOH, [Na^+]total=140). The external solution was (in mM): 140 NMDG-Cl, 10 CaCl2, 20 HEPES (pH 7.4 adjusted with HCl) or 80 NMDG-Cl, 50 CaCl2, and 20 HEPES. The fast kinetics and small current amplitude of SKM1 in 10 mM [Ca^2+]o necessitated the use of 50 mM [Ca^2+]o for accurate determination of Erev. The permeability ratio of Ca2+ was estimated according to the following equation: PCa/Px=asi(exp(ErevF/RT)[(exp(ErevF/RT)+1]/(4ase) where R, T, F, and Erev are the gas constant, absolute temperature, Faraday constant, and reversal potential, respectively, and x represents Cs^+ or Na^+ (i, internal; e, external) (Hille 2001). For calculations of membrane permeability, activity coefficients for Ca^2+, Cs^+ and Na^+ were estimated as follows: as=γs[Xs] where activity, as, is the effective concentration of an ion in solution, s related to the nominal concentration [Xs] by the activity coefficient, γs·γs was calculated from the Debye-Hückel equation: log γs=−0.51*zs^2√μ/[1+3.8ασ√μ] where μ is the ionic strength of the solution, zs is the charge on the ion, and αs is the effective diameter of the hydrated ion in nanometers (nm). The calculated activity coefficients were γ(Cs)i=0.70, γ(Ca)e=0.331, γ(Na)i=0.75 and γ(Na)e=0.73. The liquid junction potentials were measured using a salt bridge as described by Neher (Neher 1992) and these measurements agreed within 3 mV to those calculated by the JPCalc program (P. Barry) within Clampex (Axon Instruments, Union City, Calif.).
Reversal potentials of the NaChBac mutants were measured under bi-ionic conditions as described in the Methods. […] The average peak current amplitude measured at 0 mV obtained in 10 mM Ca^2+ Tyrode's solution or in 105 mM Ca^2+ solution is shown in FIG. 7B and normalized to the current amplitude measured in 10 mM Ca^2+ solution (FIG. 7C).
Relative permeability (PCa/PNa) was calculated as described in the Methods and Table 1. Since PCa/PNa had not been described for native Nav channels under these specific conditions, we also measured the relative permeability for SKM1, a skeletal muscle Na^+-selective channel (SKM1; Kraner, Rich et al. 1998) was expressed in COS and CHO cells and examined under identical conditions as NaChBac and similar to its mutants; Table 1).

Chain of NaChBac (Q9KCR8 1-274 S273L): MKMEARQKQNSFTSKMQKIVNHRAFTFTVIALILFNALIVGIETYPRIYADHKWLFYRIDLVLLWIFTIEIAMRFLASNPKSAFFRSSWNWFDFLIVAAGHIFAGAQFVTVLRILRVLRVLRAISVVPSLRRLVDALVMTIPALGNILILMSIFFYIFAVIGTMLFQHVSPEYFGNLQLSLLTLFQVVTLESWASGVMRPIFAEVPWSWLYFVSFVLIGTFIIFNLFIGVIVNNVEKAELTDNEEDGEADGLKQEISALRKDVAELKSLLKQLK

Compound	IC50 [1] [µM]	block of INaChBac [1]	further results
[Cd+2] [Cd^2+]			reduction of the channel current [1]: reduced the channel current to various degrees
[Co+2] [Co^2+]			reduction of the channel current [1]: reduced the channel current to various degrees
[Ni+2] [Ni^2+]			IC50 ([1]; read-out: concentration of agent needed to block INaChBac by 50% (IC50)): 720 µM
COCC(=O)O[C@]1(CCN(C)CCCc2nc3ccccc3[nH]2)CCc2cc(F)ccc2[C@@H]1C(C)C [mibefradil]	22		sensitivity of INaChBac to the blocker (figure legend) [1]: relatively insensitive
COC(=O)C1=C(C)NC(C)=C(C(=O)OC)C1c1ccccc1[N+](=O)[O-] [nifedipine, Nifedipine]	2.2		
COCCOC(=O)C1=C(C)NC(C)=C(C(=O)OC(C)C)C1c1cccc([N+](=O)[O-])c1 (stereo not drawn) [nimodipine]	1		
NC1=N[C@H](O)[C@H]2[C@H]3O[C@]4(O)O[C@@H]([C@@H](O)[C@@]2(N1)[C@@H]4O)[C@]3(O)CO [tetrodotoxin, Tetrodotoxin]		completely insensitive	sensitivity of INaChBac to the blocker (figure legend) [1]: insensitive
SKM1: skeletal muscle Na+ channel SKM1 (M26643), used in comparison to NaChBac [reference compound]			PCa/PNa [2]: 0.32 ± 0.07 (n = 8)^c
ω-Agatoxin IVA		ineffective	
ω-Conotoxin GVIA		ineffective	

From patent US7790845B2, “Bacterial ion channel” (Children's Medical Center Corporation, priority 2001, dated 2010)
